Where a name gives a salt, the structure may show the parent alone.

The target of this test is T1, recombinant guanylate cyclase reporter cell line (Rattus norvegicus, UniProt P20595).
T1 construct: expressed in transfected cells
T1 sequence (P20595 1-619): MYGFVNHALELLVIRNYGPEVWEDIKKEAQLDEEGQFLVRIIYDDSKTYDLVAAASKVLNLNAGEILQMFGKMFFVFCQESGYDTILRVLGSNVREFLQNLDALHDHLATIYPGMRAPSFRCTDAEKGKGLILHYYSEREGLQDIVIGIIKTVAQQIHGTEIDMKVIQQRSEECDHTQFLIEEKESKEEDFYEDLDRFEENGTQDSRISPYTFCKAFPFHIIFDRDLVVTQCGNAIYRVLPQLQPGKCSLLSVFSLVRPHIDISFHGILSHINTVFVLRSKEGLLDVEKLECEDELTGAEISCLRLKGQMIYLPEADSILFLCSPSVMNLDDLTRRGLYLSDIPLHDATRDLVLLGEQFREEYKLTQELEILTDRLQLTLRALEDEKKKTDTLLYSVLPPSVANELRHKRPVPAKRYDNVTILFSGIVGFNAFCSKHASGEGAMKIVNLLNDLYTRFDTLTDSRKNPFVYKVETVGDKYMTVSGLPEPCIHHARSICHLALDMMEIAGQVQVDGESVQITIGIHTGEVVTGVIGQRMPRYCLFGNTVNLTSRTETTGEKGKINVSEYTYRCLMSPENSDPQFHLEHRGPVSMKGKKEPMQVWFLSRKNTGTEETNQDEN
T1 sequence (P19686 1-690 partner): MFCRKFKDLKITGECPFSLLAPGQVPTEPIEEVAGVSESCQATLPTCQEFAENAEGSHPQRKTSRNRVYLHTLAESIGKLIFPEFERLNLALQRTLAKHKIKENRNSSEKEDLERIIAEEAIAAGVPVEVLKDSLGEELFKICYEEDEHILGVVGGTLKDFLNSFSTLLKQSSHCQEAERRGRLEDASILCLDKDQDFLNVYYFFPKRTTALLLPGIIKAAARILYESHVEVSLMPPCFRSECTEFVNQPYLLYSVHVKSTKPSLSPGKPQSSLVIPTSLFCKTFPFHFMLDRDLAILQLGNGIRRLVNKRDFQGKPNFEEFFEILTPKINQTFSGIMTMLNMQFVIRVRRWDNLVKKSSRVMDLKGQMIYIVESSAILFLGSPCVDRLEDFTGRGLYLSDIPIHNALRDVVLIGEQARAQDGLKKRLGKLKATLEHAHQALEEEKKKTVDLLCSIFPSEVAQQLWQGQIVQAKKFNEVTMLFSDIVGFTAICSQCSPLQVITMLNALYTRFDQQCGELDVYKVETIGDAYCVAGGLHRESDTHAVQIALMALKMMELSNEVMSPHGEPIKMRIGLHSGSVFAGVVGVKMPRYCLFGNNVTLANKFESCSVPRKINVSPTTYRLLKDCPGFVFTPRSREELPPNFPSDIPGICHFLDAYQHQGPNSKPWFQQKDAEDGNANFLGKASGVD
Description: Effect on a recombinant guanylate cyclase reporter cell line. The class given is cell-based. Particulars: in some cases mean values from individual determinations; for MEC: MEC = minimum effective concentration; for EC50: half maximal effective concentration. Here is the method:
The cellular activity of the compounds according to the invention was determined using a recombinant guanylate cyclase reporter cell line, as described in F. Wunder et al., Anal. Biochem. 339, 104-112 (2005).

With `CC(C)OC(=O)N1CCN(c2ccc(-c3ccc(Cl)cc3N3CCCC(n4ncc(C(=O)O)c4C(F)(F)F)C3)cc2)CC1` (single isomer, unassigned) [Example 56, 1-[1-[5-Chloro-2-[4-(4-isopropoxycarbonylpiperazin-1-yl)phenyl]phenyl]-3-piperidyl]-5-(trifluoromethyl)pyrazole-4-carboxylic acid], the MEC is 3.0 nM and the EC50 came out at 18 nM.

Turning to `CCC(=O)N1CCC(c2ccc(-c3ccc(Cl)cc3N3CCCC(n4ncc(C(=O)O)c4C(F)(F)F)C3)cc2)CC1` (single isomer, unassigned) [Example 83, 1-[1-[5-Chloro-2-[4-(1-propanoyl-4-piperidyl)phenyl]phenyl]-3-piperidyl]-5-(trifluoromethyl)pyrazole-4-carboxylic acid hydrochloride], the MEC was 0.3 nM and the EC50 worked out at 3.9 nM.

For the compound `CC(C)N1CCN(c2ccc(-c3ccc(Cl)cc3N3CCCC(n4ncc(C(=O)O)c4C(F)(F)F)C3)cc2)CC1` (single isomer, unassigned) [Example 6, 1-[1-[5-Chloro-2-[4-(4-isopropylpiperazin-1-yl)phenyl]phenyl]-3-piperidyl]-5-(trifluoromethyl)pyrazole-4-carboxylic acid hydrochloride], the MEC was found to be 10.0 nM and the EC50 is 88 nM.

Consider `O=C(O)c1cnn(C2CCCN(c3cc(Cl)ccc3-c3ccc(N4CCN(CCC(F)(F)F)CC4)cc3)C2)c1C(F)(F)F` (single isomer, unassigned) [Example 17, 1-[1-[5-Chloro-2-[4-[4-(3,3,3-trifluoropropyl)piperazin-1-yl]phenyl]phenyl]-3-piperidyl]-5-(trifluoromethyl)pyrazole-4-carboxylic acid hydrochloride], for which the MEC is reported as less than 0.3 nM and the EC50 stood at 1.4 nM.

Take `O=C(O)c1cnn(C2CCCN(c3cc(Cl)ccc3-c3ccc(N4CCN(CCC(F)(F)F)CC4)nc3)C2)c1C(F)(F)F` (single isomer, unassigned) [Example 76, 1-[1-[5-Chloro-2-[6-[4-(3,3,3-trifluoropropyl)piperazin-1-yl]-3-pyridyl]phenyl]-3-piperidyl]-5-(trifluoromethyl)pyrazole-4-carboxylic acid hydrochloride]: the MEC is listed as 1.0 nM and the EC50 worked out at 4.8 nM.

For `O=C(O)c1cnn(C2CCCN(c3cc(Cl)ccc3-c3ccc(N4CCN(C(=O)OC5CC5)CC4)cc3)C2)c1C(F)(F)F` (single isomer, unassigned) [Example 57, 1-[1-[5-Chloro-2-[4-[4-(cyclopropoxycarbonyl)piperazin-1-yl]phenyl]phenyl]-3-piperidyl]-5-(trifluoromethyl)pyrazole-4-carboxylic acid], the MEC stood at 1.0 nM and the EC50 is 6.3 nM.

Consider `O=C(O)c1cnn(C2CCCN(c3cc(Cl)ccc3-c3ccc(N4CCN(CC56CC(F)(C5)C6)CC4)cc3)C2)c1C(F)(F)F` (single isomer, unassigned) [Example 24, 1-[1-[5-Chloro-2-[4-[4-[(3-fluoro-1-bicyclo[1.1.1]pentanyl)methyl]piperazin-1-yl]phenyl]phenyl]-3-piperidyl]-5-(trifluoromethyl)pyrazole-4-carboxylic acid hydrochloride], for which the MEC was found to be 3.0 nM and the EC50 came out at 12.7 nM.

Consider `O=C(O)c1cnn(C2CCCN(c3cc(Cl)ccc3-c3ccc(N4CCN(C[C@@H]5C[C@@H]5F)CC4)cc3)C2)c1C(F)(F)F` (single isomer, unassigned) [Example 28, hydrochloride], for which the EC50 was 5.5 nM. Moreover, where the note is “hydrochloride”, the MEC is 3.0 nM.

As for `CCN1CCN(c2ccc(-c3ccc(Cl)cc3N3CCCC(n4ncc(C(=O)O)c4C(F)(F)F)C3)c(C)c2)CC1` (single isomer, unassigned) [Example 73, 1-[1-[5-Chloro-2-[4-(4-ethylpiperazin-1-yl)-2-methyl-phenyl]phenyl]-3-piperidyl]-5-(trifluoromethyl)pyrazole-4-carboxylic acid hydrochloride], the MEC turned out to be 30.0 nM and the EC50 is 58 nM.

Consider `O=C(O)c1cnn(C2CCCN(c3cc(Cl)ccc3-c3ccc(N4CCN(CC5CC5C(F)(F)F)CC4)cc3)C2)c1C(F)(F)F` (single isomer, unassigned) [Example 33, 1-[1-[5-Chloro-2-[4-[4-[[2-(trifluoromethyl)cyclopropyl]methyl]piperazin-1-yl]phenyl]phenyl]-3-piperidyl]-5-(trifluoromethyl)pyrazole-4-carboxylic acid hydrochloride], for which the EC50 was 37.5 nM. For the same compound, the MEC (hydrochloride) is reported as 10.0 nM.

With `CN1CCN(c2ccc(-c3ccc(Cl)cc3N3CCCC(n4ncc(C(=O)O)c4C(F)(F)F)C3)cc2)CC1` (single isomer, unassigned) [Example 2, 1-{1-[4-Chloro-4′-(4-methylpiperazin-1-yl)[1,1′-biphenyl]-2-yl]piperidin-3-yl}-5-(trifluoromethyl)-1H-pyrazole-4-carboxylic acid hydrochloride], the EC50 worked out at 28.8 nM. The MEC (hydrochloride) was found to be 5.5 nM.

Take `O=C(O)c1cnn(C2CCCN(c3cc(Cl)ccc3-c3ccc(C4CC4)nc3)C2)c1C(F)(F)F` (single isomer, unassigned) [Example 79, 1-[1-[5-Chloro-2-(6-cyclopropyl-3-pyridyl)phenyl]-3-piperidyl]-5-(trifluoromethyl)pyrazole-4-carboxylic acid]: the MEC is reported as 1.0 nM and the EC50 worked out at 3.6 nM.

For the compound `O=C(O)c1cnn(C2CCCN(c3cc(Cl)ccc3-c3ccc(N4CCN(CC5CC5(F)F)CC4)cc3)C2)c1C(F)(F)F` (mixture of isomers) [Example 31, 1-[1-[5-Chloro-2-[4-[4-[[2,2-difluorocyclopropyl]methyl]piperazin-1-yl]phenyl]phenyl]-3-piperidyl]-5-(trifluoromethyl)pyrazole-4-carboxylic acid hydrochloride], the MEC was 1.0 nM and the EC50 is 3.8 nM.

Take `O=C(O)c1cnn(C2CCCN(c3cc(Cl)ccc3-c3ccc(N4CCN(CC(F)F)CC4)cc3)C2)c1C(F)(F)F` (single isomer, unassigned) [Example 12, 1-[1-[5-Chloro-2-[4-[4-(2,2-difluoroethyl)piperazin-1-yl]phenyl]phenyl]-3-piperidyl]-5-(trifluoromethyl)pyrazole-4-carboxylic acid hydrochloride]: the EC50 turned out to be 4.6 nM. Moreover, for the setting “hydrochloride”, the MEC is recorded as 1.0 nM.

For `CN1CCN(c2ccc(-c3ccc(Cl)cc3N3CCCC(n4ncc(C(=O)O)c4C(F)(F)F)C3)cc2)CC1` (single isomer, unassigned) [Example 1, 1-[1-[5-Chloro-2-[4-(4-methylpiperazin-1-yl)phenyl]phenyl]-3-piperidyl]-5-(trifluoromethyl)pyrazole-4-carboxylic acid], the MEC is on record as 10.0 nM and the EC50 was determined as 47.5 nM.

As for `O=C(O)c1cnn(C2CCCN(c3cc(Cl)ccc3-c3ccc(N4CCN(C(=O)[C@@H]5C[C@@H]5F)CC4)cc3)C2)c1C(F)(F)F` (single isomer, unassigned) [Example 46], the MEC came out at 3.0 nM and the EC50 is 14.5 nM.

Regarding `CCOC(=O)N1CCN(c2ccc(-c3ccc(Cl)cc3N3CCCC(n4ncc(C(=O)O)c4C(F)(F)F)C3)cc2)CC1` (single isomer, unassigned) [Example 55, 1-[1-[5-Chloro-2-[4-(4-ethoxycarbonylpiperazin-1-yl)phenyl]phenyl]-3-piperidyl]-5-(trifluoromethyl)pyrazole-4-carboxylic acid], the MEC worked out at 3.0 nM and the EC50 was 10.4 nM.

As to `COCCC(=O)N1CCN(c2ccc(-c3ccc(Cl)cc3N3CCCC(n4ncc(C(=O)O)c4C(F)(F)F)C3)cc2)CC1` (single isomer, unassigned) [Example 41, 1-[1-[5-Chloro-2-[4-[4-(3-methoxypropanoyl)piperazin-1-yl]phenyl]phenyl]-3-piperidyl]-5-(trifluoromethyl)pyrazole-4-carboxylic acid], the MEC amounted to 3.0 nM and the EC50 was found to be 44 nM.

As a reminder, the EC50 is the concentration at which the effect is half-maximal.

These data come from US20240109864A1, “SUBSTITUTED PYRAZOLYL PIPERIDINE CARBOXYLIC ACIDS” (BAYER AKTIENGESELLSCHAFT, priority 2020, published 2024).
